From PMC9925730, “Controlled sequential in situ self-assembly and disassembly of a fluorogenic cisplatin prodrug for cancer theranostics” (Nature Communications, 2023)
“And” between values parts separate entries of the source, which are not always exact repeats. Equal entries are not always repeated. Where two headings read alike, the source gives them in different places.

Assays:
HepG2 cells = assay: Cytotoxicity, MTT assay; assay type: cell-based, human; parameters: key to cell viability, mean: % viability = OD / OD of untreated control
Procedure: (§1) HeLa cells were seeded on flat-bottomed 96-well plates (5000 cells per well) and incubated at 37 °C overnight. Varying concentrations of P-CyPt, Pt^IVNPs or CDDP (0, 1, 2, 5, 10, 20, 30, 50, 100, and 200 μM) in DMEM medium (100 μL) were added. Cells were either incubated for 48 h, or firstly incubated with these three compounds for 2 h, washed with PBS and then incubated with refreshed blank DMEM medium for another 48 h. Then, 3-(4,5)-dimethylthiahiazo (-z-y1)−3,5-di-phenytetrazoliumromide (MTT, 50 μL, 1 mg /mL in PBS) was added into each well. The cells were kept at 37 °C for 4 h, and the solution in each well was carefully removed, followed by addition of dimethyl sulfoxide (DMSO, 150 μL). The absorbance (OD) at 490 nm in each well was acquired on the microplate reader (Tcan). The absorbance of non-treated blank cells (OD control) was used as the control. The percentage of cell viability was calculated by dividing OD to the OD control. […]
(§2) Supplementary Table 4. The IC50 (μM) value of different Pt drugs toward HeLa, HepG2 and HEK-293T cells.a
(§3) Compounds Condition IC50 (μM) HeLa HepG2 HEK-293T […]
(§4) a The IC50 values were measured by the MTT assay. Values denote mean ± s.d. (n = 3 independent experiments). b Cells were incubated with varying concentrations of CDDP, P-CyPt or PtIVNPs for […]
(§5) c Cells were incubated with varying concentrations of CDDP, P-CyPt or PtIVNPs for 2 h, and the mediums were removed, washed with PBS. Blank culture mediums were added, and the cells were kept incubation for another 48 h.

HEK-293T cells = assay: Cytotoxicity, MTT assay; assay type: cell-based, human; parameters: key to cell viability, mean: % viability = OD / OD of untreated control
Procedure: as §1, §2, §3, §4, §5

HeLa cells = assay: Cytotoxicity, MTT assay; assay type: cell-based, human; parameters: key to cell viability, mean: % viability = OD / OD of untreated control
Procedure: as §1, §2, §3, §4, §5

s.c. HeLa tumors = assay: Biodistribution study of Pt (ICP-OES); assay type: in vivo, mice

## CC1(C)C(/C=C/C2=C3Oc4cc(OP(=O)(O)O)c(Cl)cc4C=C3CCC2)=[N+](CCCNC(=O)[C@@H](Cc2ccccc2)NC(=O)[C@@H](Cc2ccccc2)NC(=O)CCC(=O)[O][Pt]([NH2])([NH2])([OH])([Cl])[Cl])c2ccccc21 [P-CyPt]
HepG2 cells; Supplementary Fig. 24 (b), concentration 30 μM
  cell viability, mean: 36.5665
HepG2 cells; Supplementary Fig. 24 (b), concentration 50 μM
  cell viability, mean: 27.7515
HepG2 cells; Supplementary Fig. 24 (b), concentration 100 μM
  cell viability, mean: 19.0319
HepG2 cells; Supplementary Fig. 24 (b), concentration 200 μM
  cell viability, mean: 12.1606
HepG2 cells; Supplementary Fig. 24 (b), read-out: IC50
  IC50: 18.1 µM
HepG2 cells; incubated 2 h, then blank medium 48 h, MTT, read-out: IC50 HepG2
  IC50: 18.1 ± 1.78 µM
HepG2 cells; incubated 48 h, MTT, read-out: IC50 HepG2
  IC50: 10.3 ± 0.87 µM
HEK-293T cells; HEK-293T, 2+48 h, individual samples, read-out: IC50-2+48h
  IC50: > 200 µM
HEK-293T cells; HEK-293T, 2+48 h, mean of 3 samples, read-out: IC50-2+48h
  IC50: > 200 µM
HEK-293T cells; HEK-293T, 48 h, individual samples, read-out: IC50-48h
  IC50: 43.8 µM and 50.3 µM and 51.8 µM
HEK-293T cells; Supplementary Fig. 23 (c), concentration 1 μM
  cell viability, mean: 98.4753
HEK-293T cells; Supplementary Fig. 23 (c), concentration 2 μM
  cell viability, mean: 94.8818
HEK-293T cells; Supplementary Fig. 23 (c), concentration 5 μM
  cell viability, mean: 91.0944
HEK-293T cells; Supplementary Fig. 23 (c), concentration 10 μM
  cell viability, mean: 84.8089
HEK-293T cells; Supplementary Fig. 23 (c), concentration 20 μM
  cell viability, mean: 73.4808
HEK-293T cells; Supplementary Fig. 23 (c), concentration 30 μM
  cell viability, mean: 62.5624
HEK-293T cells; Supplementary Fig. 23 (c), concentration 50 μM
  cell viability, mean: 47.5251
HEK-293T cells; Supplementary Fig. 23 (c), concentration 100 μM
  cell viability, mean: 31.456
HEK-293T cells; Supplementary Fig. 23 (c), concentration 200 μM
  cell viability, mean: 17.421
HEK-293T cells; Supplementary Fig. 24 (c), concentration 1 μM
  cell viability, mean: 97.0705
HEK-293T cells; Supplementary Fig. 24 (c), concentration 2 μM
  cell viability, mean: 99.2124
HEK-293T cells; Supplementary Fig. 24 (c), concentration 5 μM
  cell viability, mean: 98.6059
HEK-293T cells; Supplementary Fig. 24 (c), concentration 10 μM
  cell viability, mean: 96.2404
HEK-293T cells; Supplementary Fig. 24 (c), concentration 20 μM
  cell viability, mean: 97.2347
HEK-293T cells; Supplementary Fig. 24 (c), concentration 30 μM
  cell viability, mean: 96.0142
HEK-293T cells; Supplementary Fig. 24 (c), concentration 50 μM
  cell viability, mean: 92.8073
HEK-293T cells; Supplementary Fig. 24 (c), concentration 100 μM
  cell viability, mean: 92.5552
HEK-293T cells; Supplementary Fig. 24 (c), concentration 200 μM
  cell viability, mean: 88.5457
HEK-293T cells; Supplementary Fig. 24 (c), read-out: IC50
  IC50: > 200 µM
HEK-293T cells; incubated 2 h, then blank medium 48 h, MTT, read-out: IC50 HEK-293T
  IC50: > 200 µM
HEK-293T cells; incubated 48 h, MTT, read-out: IC50 HEK-293T
  IC50: 48.6 ± 4.24 µM
HeLa cells; HeLa, 2+48 h, individual samples, read-out: IC50-2+48h
  IC50: 14.2 µM and 15.9 µM and 13.5 µM
HeLa cells; HeLa, 2+48 h, mean of 3 samples, read-out: IC50-2+48h
  IC50: 14.6 µM
HeLa cells; HeLa, 48 h, individual samples, read-out: IC50-48h
  IC50: 5.97 µM and 7.11 µM and 7.21 µM
HeLa cells; Supplementary Fig. 23 (a), concentration 1 μM
  cell viability, mean: 92.8903
HeLa cells; Supplementary Fig. 23 (a), concentration 2 μM
  cell viability, mean: 79.6162
HeLa cells; Supplementary Fig. 23 (a), concentration 5 μM
  cell viability, mean: 58.6671
HeLa cells; Supplementary Fig. 23 (a), concentration 10 μM
  cell viability, mean: 35.0547
HeLa cells; Supplementary Fig. 23 (a), concentration 20 μM
  cell viability, mean: 22.3775
HeLa cells; Supplementary Fig. 23 (a), concentration 30 μM
  cell viability, mean: 18.41
HeLa cells; Supplementary Fig. 23 (a), concentration 50 μM
  cell viability, mean: 13.1166
HeLa cells; Supplementary Fig. 23 (a), concentration 100 μM
  cell viability, mean: 9.42
HeLa cells; Supplementary Fig. 23 (a), concentration 200 μM
  cell viability, mean: 5.73
HeLa cells; Supplementary Fig. 23 (a), read-out: IC50
  IC50: 6.76 µM
HeLa cells; Supplementary Fig. 24 (a), concentration 1 μM
  cell viability, mean: 94.9375
HeLa cells; Supplementary Fig. 24 (a), concentration 2 μM
  cell viability, mean: 87.7526
HeLa cells; Supplementary Fig. 24 (a), concentration 5 μM
  cell viability, mean: 73.6215
HeLa cells; Supplementary Fig. 24 (a), concentration 10 μM
  cell viability, mean: 60.3727
HeLa cells; Supplementary Fig. 24 (a), concentration 20 μM
  cell viability, mean: 43.1523
HeLa cells; Supplementary Fig. 24 (a), concentration 30 μM
  cell viability, mean: 31.9252
HeLa cells; Supplementary Fig. 24 (a), concentration 50 μM
  cell viability, mean: 21.7758
HeLa cells; Supplementary Fig. 24 (a), concentration 100 μM
  cell viability, mean: 11.35
HeLa cells; Supplementary Fig. 24 (a), concentration 200 μM
  cell viability, mean: 7.117
HeLa cells; incubated 2 h, then blank medium 48 h, MTT, read-out: IC50 HeLa
  IC50: 14.6 ± 1.24 µM
HeLa cells; incubated 48 h, MTT, read-out: IC50 HeLa
  IC50: 6.76 ± 0.68 µM
s.c. HeLa tumors; 4 h post i.v. injection
  organ with the highest ID% g^−1: tumors
s.c. HeLa tumors; s.c. HeLa tumors, 4 h post i.v. (100 μM, 200 μL), ICP-OES
  ID% g^−1 of Pt in tumors: ~20.3%
